Measurements as given in the supplement of paper PMC10307832.

Assays:
Assay in all cases: relative viability (nuclei count vs DMSO), 5 days (fraction); higher = more cells survive
AZD1208 + Pictilisib = compound: N[C@@H]1CCCN(c2c(/C=C3\SC(=O)NC3=O)cccc2-c2ccccc2)C1 [AZD1208] + CS(=O)(=O)N1CCN(Cc2cc3nc(-c4cccc5[nH]ncc45)nc(N4CCOCC4)c3s2)CC1 [Pictilisib] (partner 1 µM)
Method in brief: (§1)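 Each reported value is a median over duplicate plates. It expresses relative viability: treated-well nuclei count divided by vehicle-well nuclei count. Lung cancer cell lines in 1536-well plates were dosed by pin tool a day after seeding, alone with one drug or with a fixed anchor-drug dose plus five library-drug doses (not always all listed) in √10 steps, and nuclei were counted after 5 days.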

XMD14-99 + Foretinib = compound: CN1CCN(CC1)C2=CC(=C(C=C2)NC3=NC(=C(S3)C(=O)C4=C(C=CC=C4Cl)Cl)N)OC [XMD14-99] + COc1cc2c(Oc3ccc(NC(=O)C4(C(=O)Nc5ccc(F)cc5)CC4)cc3F)ccnc2cc1OCCCN1CCOCC1 [Foretinib] (partner 0.25 µM)
Method in brief: as §1

AZD1208 + Trametinib = compound: N[C@@H]1CCCN(c2c(/C=C3\SC(=O)NC3=O)cccc2-c2ccccc2)C1 [AZD1208] + CC(=O)Nc1cccc(-n2c(=O)n(C3CC3)c(=O)c3c(Nc4ccc(I)cc4F)n(C)c(=O)c(C)c32)c1 [Trametinib] (partner 0.02 µM)
Method in brief: as §1

XMD14-99 + Crizotinib = compound: CN1CCN(CC1)C2=CC(=C(C=C2)NC3=NC(=C(S3)C(=O)C4=C(C=CC=C4Cl)Cl)N)OC [XMD14-99] + C[C@@H](Oc1cc(-c2cnn(C3CCNCC3)c2)cnc1N)c1c(Cl)ccc(F)c1Cl [Crizotinib] (partner 1 µM)
Method in brief: as §1

Cell Line	relative viability (AZD1208 + Pictilisib; first compound 0.08 µM)	relative viability (AZD1208 + Pictilisib; first compound 0.253 µM)	relative viability (AZD1208 + Pictilisib; first compound 0.8 µM)	relative viability (AZD1208 + Pictilisib; first compound 2.53 µM)	relative viability (AZD1208 + Pictilisib; first compound 8 µM)	relative viability (XMD14-99 + Foretinib; first compound 0.08 µM)	relative viability (XMD14-99 + Foretinib; first compound 0.8 µM)	relative viability (XMD14-99 + Foretinib; first compound 2.53 µM)	relative viability (XMD14-99 + Foretinib; first compound 8 µM)	relative viability (AZD1208 + Trametinib; first compound 0.08 µM)	relative viability (AZD1208 + Trametinib; first compound 0.253 µM)	relative viability (AZD1208 + Trametinib; first compound 0.8 µM)	relative viability (AZD1208 + Trametinib; first compound 2.53 µM)	relative viability (AZD1208 + Trametinib; first compound 8 µM)	relative viability (XMD14-99 + Crizotinib; first compound 0.08 µM)	relative viability (XMD14-99 + Crizotinib; first compound 0.8 µM)	relative viability (XMD14-99 + Crizotinib; first compound 2.53 µM)	relative viability (XMD14-99 + Crizotinib; first compound 8 µM)
NCI-H2023	0.193	0.223	0.203	0.183	0.209	0.986	0.842	0.704	0.698	0.601	0.55	0.416	0.506	0.394	0.731	0.648	0.667	0.495
NCI-H3122	0.506	0.486	0.447	0.481	0.524	0.948	0.964	0.847	0.756	0.201	0.221	0.192	0.203	0.165	0.267	0.229	0.262	0.251
NCI-H1755	0.377	0.441	0.368	0.326	0.283	0.916	0.9	0.817	0.687	0.755	0.841	0.779	0.705	0.647	0.846	0.878	0.825	0.614
HCC-78	0.205	0.206	0.198	0.195	0.205	0.506	0.489	0.566	0.53	0.689	0.806	0.702	0.834	0.919	0.325	0.319	0.351	0.255
